Assay results published in PubChem BioAssay (NCI).
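Each compound was tested at five concentrations against cells in 96-well plates for 48 hours. GI50 = concentration required for 50% inhibition of growth. TGI denotes the concentration required for complete inhibition of growth.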

Columns and labels:
Assay in all cases: NCI anticancer screen, dose series, 48 h
786-0 renal = tested on: 786-0 renal
A498 renal = tested on: A498 renal
A549 NSCLC = tested on: A549 NSCLC
ACHN renal = tested on: ACHN renal
BT-549 breast = tested on: BT-549 breast
CCRF-CEM leukemia = tested on: CCRF-CEM leukemia
COLO 205 colon = tested on: COLO 205 colon
DU-145 prostate = tested on: DU-145 prostate
EKVX NSCLC = tested on: EKVX NSCLC
HCC-2998 colon = tested on: HCC-2998 colon
HCT-116 colon = tested on: HCT-116 colon
HCT-15 colon = tested on: HCT-15 colon
HL-60(TB) leukemia = tested on: HL-60(TB) leukemia
HOP-62 NSCLC = tested on: HOP-62 NSCLC
HOP-92 NSCLC = tested on: HOP-92 NSCLC
HS 578T breast = tested on: HS 578T breast
HT29 colon = tested on: HT29 colon
IGROV1 ovarian = tested on: IGROV1 ovarian
K-562 leukemia = tested on: K-562 leukemia
KM12 colon = tested on: KM12 colon
LOX IMVI melanoma = tested on: LOX IMVI melanoma
M14 melanoma = tested on: M14 melanoma
MALME-3M melanoma = tested on: MALME-3M melanoma
MCF7 breast = tested on: MCF7 breast
MDA-MB-231 breast = tested on: MDA-MB-231 breast
MDA-MB-435 = tested on: MDA-MB-435
MOLT-4 leukemia = tested on: MOLT-4 leukemia
NCI-H226 lung = tested on: NCI-H226 lung
NCI-H23 lung = tested on: NCI-H23 lung
NCI-H460 lung = tested on: NCI-H460 lung
NCI-H522 lung = tested on: NCI-H522 lung
NCI/ADR-RES ovarian = tested on: NCI/ADR-RES ovarian
OVCAR-3 ovarian = tested on: OVCAR-3 ovarian
OVCAR-4 ovarian = tested on: OVCAR-4 ovarian
OVCAR-5 ovarian = tested on: OVCAR-5 ovarian
OVCAR-8 ovarian = tested on: OVCAR-8 ovarian
PC-3 prostate = tested on: PC-3 prostate
RPMI-8226 leukemia = tested on: RPMI-8226 leukemia
RXF 393 renal = tested on: RXF 393 renal
SF-268 CNS = tested on: SF-268 CNS
SF-295 CNS = tested on: SF-295 CNS
SF-539 CNS = tested on: SF-539 CNS
SK-MEL-2 melanoma = tested on: SK-MEL-2 melanoma
SK-MEL-28 melanoma = tested on: SK-MEL-28 melanoma
SK-MEL-5 melanoma = tested on: SK-MEL-5 melanoma
SK-OV-3 ovarian = tested on: SK-OV-3 ovarian
SN12C renal = tested on: SN12C renal
SNB-19 CNS = tested on: SNB-19 CNS
SNB-75 CNS = tested on: SNB-75 CNS
SR leukemia = tested on: SR leukemia
SW-620 colon = tested on: SW-620 colon
T-47D breast = tested on: T-47D breast
TK-10 renal = tested on: TK-10 renal
U251 CNS = tested on: U251 CNS
UACC-257 melanoma = tested on: UACC-257 melanoma
UACC-62 melanoma = tested on: UACC-62 melanoma
UO-31 renal = tested on: UO-31 renal
CAKI-1 renal = tested on: CAKI-1 renal

With `Cc1cc(N2CCCCC2)nc(N(CCCNc2ccnc3cc(Cl)ccc23)Cc2ccco2)n1` the GI50 (786-0 renal) was 1.61 µM, the TGI (786-0 renal) was 3.27 µM and the GI50 (A498 renal) was 2.66 µM. It also gave a TGI (A498 renal) of 9.39 µM, a GI50 (A549 NSCLC) of 3.34 µM and a TGI (A549 NSCLC) of 11.2 µM. The GI50 (ACHN renal) was 3.3 µM, the TGI (ACHN renal) was 12 µM and the GI50 (BT-549 breast) was 2.65 µM. It also gave a TGI (BT-549 breast) of 8.54 µM, a GI50 (CCRF-CEM leukemia) of 2.01 µM and a TGI (CCRF-CEM leukemia) of 12.6 µM. It also gave a GI50 (COLO 205 colon) of 1.67 µM, a TGI (COLO 205 colon) of 3.53 µM and a GI50 (DU-145 prostate) of 3.14 µM. It also gave a TGI (DU-145 prostate) of 12.9 µM, a GI50 (EKVX NSCLC) of 2.42 µM and a TGI (EKVX NSCLC) of 11.7 µM. It also gave a GI50 (HCC-2998 colon) of 1.97 µM, a TGI (HCC-2998 colon) of 4.39 µM and a GI50 (HCT-116 colon) of 1.15 µM. The TGI (HCT-116 colon) was 3.28 µM, the GI50 (HCT-15 colon) was 1.62 µM and the TGI (HCT-15 colon) was 4.88 µM. The GI50 (HL-60(TB) leukemia) was 1.94 µM, the TGI (HL-60(TB) leukemia) was 4.51 µM and the GI50 (HOP-62 NSCLC) was 1.38 µM. For the same molecule, the TGI (HOP-62 NSCLC) was 4.1 µM, the GI50 (HOP-92 NSCLC) was 1.38 µM and the TGI (HOP-92 NSCLC) was 3.95 µM. For the same molecule, the GI50 (HS 578T breast) was 3.02 µM, the TGI (HS 578T breast) was 11.4 µM and the GI50 (HT29 colon) was 1.2 µM. The TGI (HT29 colon) was 4.95 µM, the GI50 (IGROV1 ovarian) was 1.82 µM and the TGI (IGROV1 ovarian) was 6.57 µM. For the same molecule, the GI50 (K-562 leukemia) was 1.38 µM, the TGI (K-562 leukemia) was 5.37 µM and the GI50 (KM12 colon) was 2.82 µM. It also gave a TGI (KM12 colon) of 11.1 µM, a GI50 (LOX IMVI melanoma) of 1.24 µM and a TGI (LOX IMVI melanoma) of 2.65 µM. For the same molecule, the GI50 (M14 melanoma) was 1.64 µM, the TGI (M14 melanoma) was 3.4 µM and the GI50 (MALME-3M melanoma) was 2.03 µM. For the same molecule, the TGI (MALME-3M melanoma) was 3.68 µM, the GI50 (MCF7 breast) was 1.81 µM and the TGI (MCF7 breast) was 5.13 µM. The GI50 (MDA-MB-231 breast) was 1.73 µM, the TGI (MDA-MB-231 breast) was 4.24 µM and the GI50 (MDA-MB-435) was 1.65 µM. For the same molecule, the TGI (MDA-MB-435) was 3.68 µM, the GI50 (MOLT-4 leukemia) was 2.45 µM and the TGI (MOLT-4 leukemia) was 7.18 µM. The GI50 (NCI-H226 lung) was 2.9 µM, the TGI (NCI-H226 lung) was 11.8 µM and the GI50 (NCI-H23 lung) was 1.58 µM. It also gave a TGI (NCI-H23 lung) of 3.8 µM, a GI50 (NCI-H460 lung) of 1.8 µM and a TGI (NCI-H460 lung) of 4.23 µM. It also gave a GI50 (NCI-H522 lung) of 2.63 µM, a TGI (NCI-H522 lung) of 7.69 µM and a GI50 (NCI/ADR-RES ovarian) of 1.43 µM. The TGI (NCI/ADR-RES ovarian) was 3.87 µM, the GI50 (OVCAR-3 ovarian) was 2.02 µM and the TGI (OVCAR-3 ovarian) was 5.01 µM. For the same molecule, the GI50 (OVCAR-4 ovarian) was 2.69 µM, the TGI (OVCAR-4 ovarian) was 14.3 µM and the GI50 (OVCAR-5 ovarian) was 3 µM. The TGI (OVCAR-5 ovarian) was 15 µM, the GI50 (OVCAR-8 ovarian) was 2.24 µM and the TGI (OVCAR-8 ovarian) was 5.18 µM. For the same molecule, the GI50 (PC-3 prostate) was 1.98 µM, the TGI (PC-3 prostate) was 5.61 µM and the GI50 (RPMI-8226 leukemia) was 1.83 µM. The TGI (RPMI-8226 leukemia) was 4.46 µM, the GI50 (RXF 393 renal) was 1.52 µM and the TGI (RXF 393 renal) was 3.44 µM. It also gave a GI50 (SF-268 CNS) of 2.86 µM, a TGI (SF-268 CNS) of 11.9 µM and a GI50 (SF-295 CNS) of 1.29 µM. For the same molecule, the TGI (SF-295 CNS) was 3.59 µM, the GI50 (SF-539 CNS) was 1.61 µM and the TGI (SF-539 CNS) was 3.19 µM. It also gave a GI50 (SK-MEL-2 melanoma) of 2.4 µM, a TGI (SK-MEL-2 melanoma) of 6.25 µM and a GI50 (SK-MEL-28 melanoma) of 1.62 µM. For the same molecule, the TGI (SK-MEL-28 melanoma) was 3.28 µM, the GI50 (SK-MEL-5 melanoma) was 1.67 µM and the TGI (SK-MEL-5 melanoma) was 3.06 µM. It also gave a GI50 (SK-OV-3 ovarian) of 3.35 µM, a TGI (SK-OV-3 ovarian) of 13.2 µM and a GI50 (SN12C renal) of 2.14 µM. The TGI (SN12C renal) was 7.15 µM, the GI50 (SNB-19 CNS) was 2.93 µM and the TGI (SNB-19 CNS) was 13.5 µM. The GI50 (SNB-75 CNS) was 3.36 µM, the TGI (SNB-75 CNS) was 16.8 µM and the GI50 (SR leukemia) was 1.69 µM. It also gave a TGI (SR leukemia) of 4.71 µM, a GI50 (SW-620 colon) of 1.61 µM and a TGI (SW-620 colon) of 4.37 µM. It also gave a GI50 (T-47D breast) of 1.77 µM, a TGI (T-47D breast) of 4.44 µM and a GI50 (TK-10 renal) of 2.63 µM. It also gave a TGI (TK-10 renal) of 8.12 µM, a GI50 (U251 CNS) of 1.8 µM and a TGI (U251 CNS) of 3.76 µM. It also gave a GI50 (UACC-257 melanoma) of 2.35 µM, a TGI (UACC-257 melanoma) of 5.21 µM and a GI50 (UACC-62 melanoma) of 1.89 µM. It also gave a TGI (UACC-62 melanoma) of 3.73 µM, a GI50 (UO-31 renal) of 1.17 µM and a TGI (UO-31 renal) of 2.59 µM.
In the case of `CC1=NN(c2nc(N)nc(CCl)n2)CC1`, the TGI (786-0 renal) is reported as 23 µM, the TGI (A498 renal) is reported as > 100 µM and the TGI (A549 NSCLC) is reported as > 100 µM. For the same molecule, the TGI (ACHN renal) was 38.5 µM, the TGI (BT-549 breast) was > 100 µM and the TGI (CAKI-1 renal) was 21.4 µM. The TGI (CCRF-CEM leukemia) was 43.3 µM, the TGI (COLO 205 colon) was 36.3 µM and the TGI (DU-145 prostate) was > 100 µM. The TGI (EKVX NSCLC) was 35.8 µM, the TGI (HCC-2998 colon) was > 100 µM and the TGI (HCT-116 colon) was 87.4 µM. It also gave a TGI (HCT-15 colon) of 43.6 µM, a TGI (HL-60(TB) leukemia) of 40 µM and a TGI (HOP-62 NSCLC) of 29.4 µM. For the same molecule, the TGI (HOP-92 NSCLC) was 38.7 µM, the TGI (HS 578T breast) was > 100 µM and the TGI (HT29 colon) was > 100 µM. The TGI (IGROV1 ovarian) was 25.9 µM, the TGI (K-562 leukemia) was 32.7 µM and the TGI (KM12 colon) was 55.3 µM. For the same molecule, the TGI (M14 melanoma) was 80.4 µM, the TGI (MCF7 breast) was > 100 µM and the TGI (MDA-MB-231 breast) was > 100 µM. For the same molecule, the TGI (MDA-MB-435) was > 100 µM, the TGI (MOLT-4 leukemia) was 68.9 µM and the TGI (NCI-H226 lung) was > 100 µM. For the same molecule, the TGI (NCI-H23 lung) was 41.2 µM, the TGI (NCI-H460 lung) was 48.8 µM and the TGI (NCI-H522 lung) was 4.91 µM. It also gave a TGI (NCI/ADR-RES ovarian) of 74.1 µM, a TGI (OVCAR-3 ovarian) of 35.3 µM and a TGI (OVCAR-4 ovarian) of 32.2 µM. For the same molecule, the TGI (OVCAR-5 ovarian) was 57.4 µM, the TGI (OVCAR-8 ovarian) was 48.6 µM and the TGI (PC-3 prostate) was > 100 µM. The TGI (RPMI-8226 leukemia) was > 100 µM, the TGI (RXF 393 renal) was > 100 µM and the TGI (SF-268 CNS) was > 100 µM. The TGI (SF-295 CNS) was > 100 µM, the TGI (SF-539 CNS) was 57.9 µM and the TGI (SK-MEL-2 melanoma) was > 100 µM. The TGI (SK-MEL-28 melanoma) was 56.4 µM, the TGI (SK-MEL-5 melanoma) was 32.2 µM and the TGI (SK-OV-3 ovarian) was > 100 µM. The TGI (SN12C renal) was > 100 µM, the TGI (SNB-19 CNS) was > 100 µM and the TGI (SNB-75 CNS) was 74.1 µM. The TGI (SR leukemia) was 61.7 µM, the TGI (SW-620 colon) was 76.4 µM and the TGI (T-47D breast) was > 100 µM. The TGI (TK-10 renal) was > 100 µM, the TGI (U251 CNS) was > 100 µM and the TGI (UACC-257 melanoma) was > 100 µM. It also gave a TGI (UACC-62 melanoma) of 31 µM and a TGI (UO-31 renal) of 20.5 µM.
